Measured values as given in patent US11559575B2, “Multi-epitopic peptide compounds and vaccines against leishmaniasis” (INSTITUT DE RECHERCHE POUR LE DEVELOPPEMENT, priority 2018, dated 2023).
“Also recorded” adds a separate entry of the source.

Columns and labels:
[1] = system: HLA alleles of class I; assay: Affinity of epitopes for HLA alleles of class I; format: binding, human; settings: for Concatenation affinity allele CII: PSA KC-2.6 Peptide CII; for Affinity allele class I: LmLRAB-IIA peptides
Excerpt: (§1) The multiepitopic peptide compounds (24 to 40-mer), having a high affinity with a maximized number of HLA molecules of class I and of class II, such as the affinities for the alleles HLA of class I and HLA of class II of the epitopes in the peptides of the sequences SEQ ID NO: 22, 23, 65, 66, 69, 73, 77, 96, 97, 137, 138, and 157, 185, have a high immunoprevalent potential corresponding to an optimal vaccine coverage, in particular for the populations concerned. The degree of coverage of the peptide compounds of the invention show a very high added value compared with the peptides of the prior art.

[2] = system: HLA alleles of class II; assay: Affinity of epitopes for HLA alleles of class II; format: binding, human
Excerpt: as §1

[3] = LmlRAB-IIB Peptide CII, Table 2

“ARSARSGEGY (listed as Leishmania infantum) [SEQ ID NO: 151]” was tested, and the “Concatenation affinity allele CII” value ([1]; Table 3) was “HLA-B*15:01”.
In the case of “ARSGEGYFL (listed as Leishmania infantum) [SEQ ID NO: 152]”, the “Concatenation affinity allele CII” value ([1]; Table 3) is reported as “HLA-B*39:01”.
In the case of “DVHYSEVSA (Leishmania major) [SEQ ID NO: 128]”, the “Concatenation affinity for HLA alleles of class I” value [1, 3] is reported as “HLA-A*68*02”.
“ENAIVTSRK (Leishmania major) [SEQ ID NO: 129]” was tested, and the “Concatenation affinity for HLA alleles of class I” value [1, 3] was “HLA-A*68:01”.
For “EVFDLFTDV (Leishmania major) [SEQ ID NO: 120]”, the “Affinity for HLA alleles of class I” value ([1]; LmlRAB-IIB core, Table 2) was “HLA-A*02:03,; also recorded: HLA-A*02:06,; also recorded: HLA-A*68:02”.
With “FDLFTDVHY (Leishmania major) [SEQ ID NO: 130]” the “Concatenation affinity for HLA alleles of class I” value [1, 3] was “HLA-A*02:01, HLA-B*35:01”.
In the case of “FLTDEKTSL (listed as Leishmania infantum) [SEQ ID NO: 146]”, the “Affinity HLA alleles of class I” value ([1]; PSA KC-2.6 core, Table 3) is reported as “HLA-A*02:01,; also recorded: HLA-A*02:03,; also recorded: HLA-A*02:06,; also recorded: HLA-B*39:01”.
“FLTDEKTSLV (listed as Leishmania infantum) [SEQ ID NO: 153]” was tested, and the “Concatenation affinity allele CII” value ([1]; Table 3) was “HLA-A*01:01, HLA-A*02:01”.
“GSDYSHSMIR (listed as Leishmania infantum) [SEQ ID NO: 179]” was tested, and the “Concatenation affinity for HLA alleles of class I” value ([1]; PSA KC-2.7 peptides, Table 3) was “HLA-A*03:01”.
“KEMPSGSDY (listed as Leishmania infantum) [SEQ ID NO: 180]” was tested, and the “Concatenation affinity for HLA alleles of class I” value ([1]; PSA KC-2.7 peptides, Table 3) was “HLA-B*15:01, HLA-A*30:02,; also recorded: HLA-B*44:02, HLA-B*44:03”.
In the case of “KGRLHSVVG (Leishmania major) [SEQ ID NO: 92]”, the “Affinity allele class I” value ([1]; Table 2) is reported as “HLA-A*30:1”.
“KGRSENAIV (Leishmania major) [SEQ ID NO: 131]” was tested, and the “Concatenation affinity for HLA alleles of class I” value [1, 3] was “HLA-A*30:01”.
In the case of “KVQEEVFDL (Leishmania major) [SEQ ID NO: 132]”, the “Concatenation affinity for HLA alleles of class I” value [1, 3] is reported as “HLA-A*02:01, HLA-A*02:06, HLA-A*32:01”.
With “LFTDVHYSEV (Leishmania major) [SEQ ID NO: 133]” the “Concatenation affinity for HLA alleles of class I” value [1, 3] was “HLA-A*01:01”.
For “LTDEKTSLVY (listed as Leishmania infantum) [SEQ ID NO: 154]”, the “Concatenation affinity allele CII” value ([1]; Table 3) was “HLA-A*01:01, HLA-B*15:01”.
“MIRDLDFSNM (listed as Leishmania infantum) [SEQ ID NO: 181]” was tested, and the “Concatenation affinity for HLA alleles of class I” value ([1]; PSA KC-2.7 peptides, Table 3) was “HLA-B*15:01”.
In the case of “MPSGSDYSH (listed as Leishmania infantum) [SEQ ID NO: 182]”, the “Concatenation affinity for HLA alleles of class I” value ([1]; PSA KC-2.7 peptides, Table 3) is reported as “HLA-B*35:01, HLA-B*53:01”.
“NMGLLLSGT (listed as Leishmania infantum) [SEQ ID NO: 183]” was tested, and the “Concatenation affinity for HLA alleles of class I” value ([1]; PSA KC-2.7 peptides, Table 3) was “HLA-A*02:02”.
“RLHSVVGRH (Leishmania major) [SEQ ID NO: 93]” was tested, and the “Affinity allele class I” value ([1]; Table 2) was “HLA-A*03:01, HLA-A*30:02”.
In the case of “RSARSGEGY (listed as Leishmania infantum) [SEQ ID NO: 155]”, the “Concatenation affinity allele CII” value ([1]; Table 3) is reported as “HLA-A*30:02, HLA-B*15:01, HLA-B*57:01,; also recorded: HLA-B*58:01”.
In the case of “SDYSHSMIRDLDFSN (listed as Leishmania infantum) [SEQ ID NO: 166]”, the “Concatenation affinity for HLA alleles of class II” value ([2]; PSA KC-2.7 peptides, Table 3) is reported as “HLA-DRB1*04:05, HLA-DRB1*07:01,; also recorded: HLA-DRB1*12:01, HLA-DRB1*09:01,; also recorded: HLA-DRB4*01:01,; also recorded: HLA-DPA1*02:01/DPB1*14:01”.
For “SENAIVTSRKVQEEV (Leishmania major) [SEQ ID NO: 113]”, the “Concatenation affinity for HLA alleles of class II” value ([2]; LmlRAB-IIB peptides, Table 2) was “HLA-DRB1*03:01, HLA-DRB1*07:01,; also recorded: HLA-DRB1*08:02, HLA-DRB1*11:01,; also recorded: HLA-DRB1*12:01”.
With “SGEGYFLTDEKTSLV (listed as Leishmania infantum) [SEQ ID NO: 144]” the “Concatenation affinity for HLA alleles of class II” value ([2]; PSA KC-2.6 peptides, Table 3) was “HLA-DRB1*01:01, HLA-DRB1*03:01,; also recorded: HLA-DRB1*04:01, HLA-DRB1*04:05,; also recorded: HLA-DRB1*07:01, HLA-DRB1*11:01,; also recorded: HLA-DRB3*01:01, HLA-DRB3*02:02,; also recorded: HLA-DPA1*02:01/DPB1*01:01”.
